Holding throughout (format): cell-based
Data set [1] concerns MB cells. The data set is described as follows: Immunofluorescence count of mitotic cells. To be noted: vs scrambled-transfected cells. On the procedure: (§1) To gain more insight into the tumor-suppressing and VCR-sensitizing activities of miR-584-5p, it was determined how the miR-584-5p mimic affected cell cycle progression of MB cells. […] Bar graphs show DNA histograms quantified using the FlowJo software. In FIG. 9A, the p-values were determined by two-way ANOVA followed by Tukey's multiple-comparisons test. Error bars represent mean±SEM. […] In FIG. 9B, the p-values were calculated using standard Student t-tests. Error bars represent mean±SEM. […] Next, it was determined whether miR-584-5p's effect on cell cycle progression may be mediated via its target genes eIF4E3/HDAC1. […] Bar graphs show dot plots quantified using the FlowJo software. Next, it was tested whether miR-584-5p-induced cell cycle arrest led to apoptosis of MB cells. […] In FIG. 8C, the bar graphs reflect DNA histograms quantified using the FlowJo software and in FIG. 8D and FIG. 9C, the bar graphs show dot plots quantified using the FlowJo software. The p-values for panels 8A-D and FIG. 9C were determined by two-way ANOVA followed by Tukey's multiple-comparisons test. Error bars represent mean±SEM. ****, p<0.0001; ***, p<0.001; **, p<0.01; *, p<0.05.
Immunofluorescence and Western blot analysis Immunofluorescence analyses was carried out on cells fixed in 4% paraformaldehyde (Imam, J. S. et al. PLoS One 7, e52397, (2012)). […]

Data set [2] has as its system MB cells. The data set is described as follows: Annexin V-FITC FACS analysis of apoptosis. Particulars: Annexin V staining. On the procedure:
as §1
Flow cytometry analysis of cell cycle and apoptosis. […] Cells were analyzed using either FACScantoII or LSRII cytometers, and data were quantified using FlowJo 10.2 software.

The next data set has as its system eIF4E3. The data set is described as follows: qPCR and Western blot of eIF4E3 in MB cells. To be noted: transcript and protein levels, all cell lines tested. In general terms: Real-time PCR tracks product formation cycle by cycle.
A further data set deals with D458Med cells. Nature of the data set: miRNA mimic library screen, CellTiter-Glo cell viability. To be noted: screen of 1,902 miRNA mimics, VCR at IC20. On the procedure:
To identify miRNAs that may sensitize VCR response in MB, a high-throughput screening platform was combined with a library of 1,902 chemically synthesized human miRNA mimics. The miRNAs are arrayed in a one-miRNA-one-well format in 96-well microtiter plates. Reverse transfection of Group 3/c-Myc-amplified D458Med cells was performed in triplicate in the presence and absence of a sublethal dose of VCR, which was optimized in four MB cell lines before the screen (FIG. 2A). Cells were subjected to VCR at an IC20 lethal concentration for 72 hours after 48 hours of transfection, and cell viability was measured (FIG. 1A). Candidate miRNAs were prioritized for validation by functional and interaction assays using standard Student t-tests (with pooled variance), false discovery rate (Q=0.5%), and by using the magnitude of response (lowest 2.5 percentile of the distribution of the μVCR/μControl ratios).
miRNA mimic library screen. The primary screen was conducted using MI00200 MISSION microRNA Mimic v.17, in which miRNA mimics were arrayed in a one-miRNA-one-well format in 96-well microtiter plates. […] Cell viability was assessed using CellTiter-Glo (Promega, Madison, Wis., USA) according to the manufacturer's protocol. ath-miR-416 or cel-miR-243 was added as a negative control, whereas siRNA against PLK-1 was used as a positive control in each plate. […]

With “miR-584-5p: microRNA mimic; nucleotide sequence UUAUGGUUUGCCUGGGACUGAG (SEQ ID NO: 1); purchased from Thermofisher (chemistry not given here)”, the mitotic cells entry with MB cells [1] is listed as “significantly more mitotic cells”. For the same substance, the “apoptosis of MB cells” value in the data set with MB cells [2] is given as “increased apoptosis”. For the same substance, in the data set with eIF4E3, the “expression of eIF4E3” value is “significantly reduced expression”. In addition, the “difference in cell viability in VCR-treated MB cells in comparison with untreated cells” value in the data set on D458Med cells was “highest magnitude of difference in cell viability”.

The record behind these values is patent US20210071180A1, “MICRORNA 584-5P COMPOSITIONS AND METHODS FOR TREATING CANCER” (BOARD OF REGENTS, THE UNIVERSY OF TEXAS SYSTEM, priority 2018, published 2021).
